Data set [1] is described as follows: Kinetic solubility assay. The conditions noted are these: PBS buffer pH 7.4 with 2% DMSO, aqueous buffer, kinetic from dmso stock, PBS buffer pH 7.4, 2% DMSO, RT, read-out: KSol. The data set is classed as physicochemical. The method, then:
Samples were prepared by adding 4 μL of the 10 mM compound DMSO stock solutions into 196 μL of PBS buffer pH 7.4 in the 96 well filter plates, yielding a compound concentration of 200 μM and 2% DMSO. The PBS buffer pH7.4 was prepared by Genentech media lab. Filter plates were sealed with aluminum sealing film and shaken at RT at 1000 rpm. After 24 h, the solutions were filtered into a clean 96 well plates utilizing a vacuum manifold. After filtration, some precipitate was often observed at the bottom of the filtration plate wells. Most of the precipitates appeared to be crystalline under a polarizing light microscope. […]
Samples were detected and analyzed using UV 254 nm and CLND. UV 254 nm is used primarily to confirm the sample purity but in rare cases, is also used to quantify the concentration of compounds with no nitrogens, where additional work was done to create a compound specific calibration curve. […] Sample quantification was accomplished by CLND peak intensity, the calibration curve, and the number of nitrogen contained in the compound. One calibration curve of caffeine was used for solubility quantitative determination. […] The number of nitrogens in a compound used for this quantification needs to be corrected for the actual configuration of the nitrogen in the compound. […]

In data set [2] the target is USP7 (Homo sapiens (Human), UniProt Q93009). Put plainly: USP7 fluorescence polarisation (FP) biochemical assay, ubiquitin-Lys-TAMRA substrate. The conditions noted are these: read-out: USP7 IC50. A digest of the protocol: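 Full-length His6-USP7 (2.5 nM) incubated ± inhibitor (8-point dilutions, 200 to 0.1 μM before addition) in 50 mM HEPES pH 7.2, 150 mM NaCl, 0.5 mM EDTA, 5 mM DTT, 0.05% BSA, 0.05% CHAPS. Ubiquitin-Lys-TAMRA cleavage followed by FP (ex 530/em 575 nm) every 15 min for 1.5 h; normalised to no-compound control.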
On the technique in general: In fluorescence polarisation assays a small probe gives low polarisation when free and higher when bound to something large.

Data set [3] relates to SJSA-1 cells. Put plainly: p53, p21 and MDM2 protein levels by western blotting in SJSA-1. The data set is classed as cell-based. The conditions noted are these: SJSA-1, 24 h treatment. The procedure:
This osteosarcoma cell line with a known functional p53 pathway was used as a second model for these experiments. Cells were treated as described above and samples analysed by western blotting as indicated. Similar observations were made with stabilisation of p53, p21 induction and MDM2 decreased levels in a concentration dependent manner.
p53, p21 and MDM2 Protein Levels
A general note: Immunoblotting shows a protein as a band on a membrane.

The subject of data set [4] is HCT116 cells. The experiment in a line: p53, p21 and MDM2 protein levels by western blotting in HCT116. The data set is classed as cell-based. The conditions noted are these: HCT116, 24 h treatment.
Data set [5] relates to LNCaP cells. Put plainly: LNCaP proliferation assay (CellTiter-Glo). The data set is classed as cell-based. The conditions noted are these: Homo sapiens, Table 1, cell viability after 168 h. The procedure: LNCaP cells from ATCC, were seeded in 96 well plate format (typically 2500 cells/well) in their growth media (RPMI, Life Technologies #52400-025+10% Fetal Calf Serum, Life Technologies #10500-064) and treated after 24 h with increasing concentration of compound from 0 to 30 μM. Cell viability was assessed after 168 h by CellTiter-Glo® as recommended by the manufacturer's instructions (Promega). Analysis and EC50 values were derived using GraphPadPrism.

Setting [6] is: Table 4, biochemical assay, average of at least duplicate experiments.
[7] abbreviates: Table 1, R9a = H versus R9a = Cl.

Molecules are shown by their SMILES. ≈ marks a conversion by molar mass, not a printed value. Where two headings read alike, the source gives them in different places. Bounds are passed on as bounds.

Usually IC50 stands for the concentration that inhibits the measured activity by half. By EC50 is commonly meant the concentration giving half of the maximal effect. Lower therefore signals an effect from little substance.

Chain of USP7 (Q93009 whole entry): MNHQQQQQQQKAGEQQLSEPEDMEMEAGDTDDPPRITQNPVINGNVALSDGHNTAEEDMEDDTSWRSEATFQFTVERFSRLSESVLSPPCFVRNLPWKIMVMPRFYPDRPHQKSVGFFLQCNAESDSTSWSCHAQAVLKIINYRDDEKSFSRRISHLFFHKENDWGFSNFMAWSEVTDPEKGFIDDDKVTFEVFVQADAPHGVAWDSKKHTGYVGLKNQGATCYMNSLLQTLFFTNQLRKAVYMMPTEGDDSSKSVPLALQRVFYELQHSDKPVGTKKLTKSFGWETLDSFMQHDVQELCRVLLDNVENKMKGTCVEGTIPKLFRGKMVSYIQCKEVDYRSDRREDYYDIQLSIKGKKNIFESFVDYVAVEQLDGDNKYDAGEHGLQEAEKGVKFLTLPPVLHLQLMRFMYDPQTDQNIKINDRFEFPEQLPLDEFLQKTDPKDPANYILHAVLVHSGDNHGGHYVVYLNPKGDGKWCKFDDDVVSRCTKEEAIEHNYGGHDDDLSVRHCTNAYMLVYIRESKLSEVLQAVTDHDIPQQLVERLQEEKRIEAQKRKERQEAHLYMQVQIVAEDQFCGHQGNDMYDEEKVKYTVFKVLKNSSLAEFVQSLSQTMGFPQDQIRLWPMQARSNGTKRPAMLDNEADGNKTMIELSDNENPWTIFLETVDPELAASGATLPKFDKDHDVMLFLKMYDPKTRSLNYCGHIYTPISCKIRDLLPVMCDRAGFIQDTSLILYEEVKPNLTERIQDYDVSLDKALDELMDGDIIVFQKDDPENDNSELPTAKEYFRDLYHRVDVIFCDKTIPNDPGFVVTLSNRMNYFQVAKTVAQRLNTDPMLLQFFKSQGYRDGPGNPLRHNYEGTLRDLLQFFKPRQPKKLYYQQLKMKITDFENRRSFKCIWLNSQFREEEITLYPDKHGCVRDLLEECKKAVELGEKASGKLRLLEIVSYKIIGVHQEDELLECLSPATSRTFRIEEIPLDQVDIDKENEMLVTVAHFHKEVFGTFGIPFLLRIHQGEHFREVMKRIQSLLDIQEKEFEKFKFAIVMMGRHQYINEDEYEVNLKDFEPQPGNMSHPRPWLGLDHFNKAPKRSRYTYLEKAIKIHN

`CC1(C(=O)N2CCC(O)(Cn3cnc4c(cc(Cl)n4-c4ccccc4)c3=O)CC2)CC1` [Example 200, 6-Chloro-3-((4-hydroxy-1-(1-methylcyclopropanecarbonyl)piperidin-4-yl)methyl)-7-phenyl-3H-pyrrolo[2,3-d]pyrimidin-4(7H)-one]: the solubility kinetic at 24 h in data set [1] is 173 µM (≈ 76.3 µg/mL). Moreover, in data set [2] (setting [6]), the IC50 was 250 to 999 nM.

With `C[C@H](CC(=O)N1CCC(O)(Cn2cnc3c(-c4cccc(N)c4)n(C)nc3c2=O)CC1)c1ccccc1` [Example 29, (R)-3-(3-Aminophenyl)-6-((4-hydroxy-1-(3-phenylbutanoyl)piperidin-4-yl)methyl)-2-methyl-2H-pyrazolo[4,3-d]pyrimidin-7(6H)-one], the “p53, p21 and MDM2 protein levels” value in data set [3] is “dose-dependent p53 stabilisation, p21 induction and concomitant decrease in MDM2 levels”; in data set [4] it was “dose-dependent p53 stabilisation, p21 induction and concomitant decrease in MDM2 levels”.

Take `Cn1cc(-c2cccc(-n3c(Cl)cc4c(=O)n(CC5(O)CCN(C(=O)C6(C)CC6)CC5)cnc43)c2)cn1` [Example 212, 6-Chloro-3-((4-hydroxy-1-(1-methylcyclopropanecarbonyl)piperidin-4-yl)methyl)-7-(3-(1-methyl-1H-pyrazol-4-yl)phenyl)-3H-pyrrolo[2,3-d]pyrimidin-4(7H)-one]: the response in data set [5] was half-maximal at 55 nM (EC50). Also, the IC50 was 140 nM in data set [2] (setting [7]) and less than 250 nM in data set [2] (setting [6]).

Consider `CC1(C(=O)N2CCC(O)(Cn3cnc4c(cc(Cl)n4-c4ccc5c(c4)OCO5)c3=O)CC2)CC1` [Example 202, 7-(Benzo[d][1,3]dioxol-5-yl)-6-chloro-3-((4-hydroxy-1-(1-methylcyclopropanecarbonyl)piperidin-4-yl)methyl)-3H-pyrrolo[2,3-d]pyrimidin-4(7H)-one], for which it took 51 nM to reach a half-maximal effect in data set [5] (EC50). Besides, the IC50 in data set [2] (setting [7]) was 250 nM; in data set [2] (setting [6]), 250 to 999 nM.

The values are drawn from patent publication US10766903B2 (ALMAC DISCOVERY LIMITED, priority 2016, dated 2020).
